Test results from patent publication US6395896B2, “Pyridazine derivatives, manufacturing method and related composition” (Shiseido Co., Ltd., priority 1999, dated 2002).

How the values were obtained:
[1] = Perfume stabilization effect (sequestering agent combination); parameters: key to Sunlight exposure (80 MJ) Smell evaluation: A: No change; B: No almost change; C: Yes change; details: for smell change: with a sequestering agent, compared with compositions without; for Sunlight exposure (80 MJ) Smell evaluation: amounts wt %
Procedure: Next, for combinations with sequestering agent, photostabilization effect for each perfume was studied by the following evaluation formulation.
Each test sample was prepared. Smell change of samples exposed to sunlight (80 MJ) was observed (judgement by perfumier).

[2] = tested on: skin (antebrachium); assay: Skin irritation test: occlusive patch test; format: in vivo, human; details: 10 wt % ultraviolet absorbent, occlusive patch 24 hours
Procedure: Sample (10 wt % of ultraviolet absorbent) is the same as test example 2. An occlusive patch test was carried out in the antebrachium part of healthy men and women subjects by finchamber for 24 hours. Each group was twenty subjects. [table] Each of the calculated average scores was evaluated by the following evaluation standard. A: average score is 0. B: average score is over 0 and less than 1. C: average score is 1 or more and less than 2. D: average score is 2 or more.

Oc1nncc(N2CCOCC2)c1N1CCOCC1 [4,5-Dimorpholino-3-hydroxypyridazine]
smell change ([1]; base perfume, Table 29): very small | Sunlight exposure (80 MJ) Smell evaluation ([1]; natural perfume Bergamot oil 0.03, photostabilizer 0.05 + Trisodium ethylenediamine tetraacetate 0.03): A | Sunlight exposure (80 MJ) Smell evaluation ([1]; natural perfume Bergamot oil 0.03, photostabilizer 0.05, no sequestering agent): B | Sunlight exposure (80 MJ) Smell evaluation ([1]; natural perfume Jasmine oil 0.03, photostabilizer 0.02 + Sodium metaphosphate 0.03): A | Sunlight exposure (80 MJ) Smell evaluation ([1]; natural perfume Jasmine oil 0.03, photostabilizer 0.02, no sequestering agent): B | Sunlight exposure (80 MJ) Smell evaluation ([1]; natural perfume Lavender oil 0.03, photostabilizer 0.02 + Trisodium hydroxyethyl ethylenediamine triacetate 0.03): A | Sunlight exposure (80 MJ) Smell evaluation ([1]; natural perfume Lavender oil 0.03, photostabilizer 0.02, no sequestering agent): B | Sunlight exposure (80 MJ) Smell evaluation ([1]; natural perfume Musk oil 0.03, photostabilizer 0.1 + Sodium metaphosphate 0.03): A | Sunlight exposure (80 MJ) Smell evaluation ([1]; natural perfume Musk oil 0.03, photostabilizer 0.1, no sequestering agent): B | Sunlight exposure (80 MJ) Smell evaluation ([1]; natural perfume Orange oil 0.03, photostabilizer 0.05 + Sodium metaphosphate 0.03): A | Sunlight exposure (80 MJ) Smell evaluation ([1]; natural perfume Orange oil 0.03, photostabilizer 0.05, no sequestering agent): B | Sunlight exposure (80 MJ) Smell evaluation ([1]; natural perfume Peppermint oil 0.03, photostabilizer 0.01 + Trisodium ethylenediamine triacetate 0.03): A | Sunlight exposure (80 MJ) Smell evaluation ([1]; natural perfume Peppermint oil 0.03, photostabilizer 0.01, no sequestering agent): B | Sunlight exposure (80 MJ) Smell evaluation ([1]; natural perfume Rose oil 0.03, photostabilizer 0.02 + Trisodium ethylenediamine tetraacetate 0.03): A | Sunlight exposure (80 MJ) Smell evaluation ([1]; natural perfume Rose oil 0.03, photostabilizer 0.02, no sequestering agent): B | Sunlight exposure (80 MJ) Smell evaluation ([1]; natural perfume Ylang ylang oil 0.03, photostabilizer 0.02 + Trisodium hydroxyethyl ethylenediamine triacetate 0.03): A | Sunlight exposure (80 MJ) Smell evaluation ([1]; natural perfume Ylang ylang oil 0.03, photostabilizer 0.02, no sequestering agent): B | smell change ([1]; natural perfume, Table 27): very small | Sunlight exposure (80 MJ) Smell evaluation ([1]; perfume Aldehyde 0.03, photostabilizer 0.05 + Trisodium hydroxyethyl ethylenediamine triacetate 0.03): A | Sunlight exposure (80 MJ) Smell evaluation ([1]; perfume Aldehyde 0.03, photostabilizer 0.05, no sequestering agent): B | Sunlight exposure (80 MJ) Smell evaluation ([1]; perfume Animal 0.03, photostabilizer 0.1 + Trisodium ethylenediamine tetraacetate 0.03): A | Sunlight exposure (80 MJ) Smell evaluation ([1]; perfume Animal 0.03, photostabilizer 0.1, no sequestering agent): B | Sunlight exposure (80 MJ) Smell evaluation ([1]; perfume Fruity 0.03, photostabilizer 0.03 + Sodium metaphosphate 0.03): A | Sunlight exposure (80 MJ) Smell evaluation ([1]; perfume Fruity 0.03, photostabilizer 0.03, no sequestering agent): B | Sunlight exposure (80 MJ) Smell evaluation ([1]; perfume Green 0.03, photostabilizer 0.01 + Trisodium hydroxyethyl ethylenediamine triacetate 0.03): A | Sunlight exposure (80 MJ) Smell evaluation ([1]; perfume Green 0.03, photostabilizer 0.01, no sequestering agent): B | Sunlight exposure (80 MJ) Smell evaluation ([1]; perfume Jasmine 0.03, photostabilizer 0.02 + Trisodium ethylenediamine tetraacetate 0.03): A | Sunlight exposure (80 MJ) Smell evaluation ([1]; perfume Jasmine 0.03, photostabilizer 0.02, no sequestering agent): B | Sunlight exposure (80 MJ) Smell evaluation ([1]; perfume Muguet 0.03, photostabilizer 0.02 + Sodium metaphosphate 0.03): A | Sunlight exposure (80 MJ) Smell evaluation ([1]; perfume Muguet 0.03, photostabilizer 0.02, no sequestering agent): B | Sunlight exposure (80 MJ) Smell evaluation ([1]; perfume Oriental 0.03, photostabilizer 0.01 + Trisodium ethylenediamine tetraacetate 0.03): A | Sunlight exposure (80 MJ) Smell evaluation ([1]; perfume Oriental 0.03, photostabilizer 0.01, no sequestering agent): B | Sunlight exposure (80 MJ) Smell evaluation ([1]; perfume Rose 0.03, photostabilizer 0.02 + Trisodium hydroxyethyl ethylenediamine triacetate 0.03): A | Sunlight exposure (80 MJ) Smell evaluation ([1]; perfume Rose 0.03, photostabilizer 0.02, no sequestering agent): B | Sunlight exposure (80 MJ) Smell evaluation ([1]; synthetic perfume Benzyl benzoate 0.03, photostabilizer 0.02 + Trisodium hydroxyethyl ethylenediamine triacetate 0.03): A | Sunlight exposure (80 MJ) Smell evaluation ([1]; synthetic perfume Benzyl benzoate 0.03, photostabilizer 0.02, no sequestering agent): B | Sunlight exposure (80 MJ) Smell evaluation ([1]; synthetic perfume Citral 0.03, photostabilizer 0.01 + Trisodium hydroxyethyl ethylenediamine triacetate 0.03): A | Sunlight exposure (80 MJ) Smell evaluation ([1]; synthetic perfume Citral 0.03, photostabilizer 0.01, no sequestering agent): B | Sunlight exposure (80 MJ) Smell evaluation ([1]; synthetic perfume Lilial 0.03, photostabilizer 0.1 + Sodium metaphosphate 0.03): A | Sunlight exposure (80 MJ) Smell evaluation ([1]; synthetic perfume Lilial 0.03, photostabilizer 0.1, no sequestering agent): B | Sunlight exposure (80 MJ) Smell evaluation ([1]; synthetic perfume Limonene 0.03, photostabilizer 0.02 + Trisodium hydroxyethyl ethylenediamine triacetate 0.03): A | Sunlight exposure (80 MJ) Smell evaluation ([1]; synthetic perfume Limonene 0.03, photostabilizer 0.02, no sequestering agent): B | Sunlight exposure (80 MJ) Smell evaluation ([1]; synthetic perfume Oranthiol 0.03, photostabilizer 0.05 + Sodium metaphosphate 0.03): A | Sunlight exposure (80 MJ) Smell evaluation ([1]; synthetic perfume Oranthiol 0.03, photostabilizer 0.05, no sequestering agent): B | Sunlight exposure (80 MJ) Smell evaluation ([1]; synthetic perfume Rose oxide 0.03, photostabilizer 0.05 + Trisodium ethylenediamine tetraacetate 0.03): A | Sunlight exposure (80 MJ) Smell evaluation ([1]; synthetic perfume Rose oxide 0.03, photostabilizer 0.05, no sequestering agent): B | Sunlight exposure (80 MJ) Smell evaluation ([1]; synthetic perfume cis-3-Hexenol 0.03, photostabilizer 0.02 + Trisodium ethylenediamine tetraacetate 0.03): A | Sunlight exposure (80 MJ) Smell evaluation ([1]; synthetic perfume cis-3-Hexenol 0.03, photostabilizer 0.02, no sequestering agent): B | Sunlight exposure (80 MJ) Smell evaluation ([1]; synthetic perfume β-ionone 0.03, photostabilizer 0.01 + Trisodium ethylenediamine tetraacetate 0.03): A | Sunlight exposure (80 MJ) Smell evaluation ([1]; synthetic perfume β-ionone 0.03, photostabilizer 0.01, no sequestering agent): B | smell change ([1]; synthetic perfume, Table 28): very small | Judgment (patch test, average skin reaction score) ([2]; Cream): A (average score is 0.) | Judgment (patch test, average skin reaction score) ([2]; Lotion): A (average score is 0.)
